Source: US20080152719A1, “Multiparticulate Pharmaceutical Form Comprising Pellets With a Matrix Which Influences the Delivery of a Modulatory Substance” (ROEHM GMBH, priority 2005, published 2008)

Experiment: Effect of modulating substances on active ingredient delivery in vitro
Format: physicochemical
Conditions: for effect of modulating substance on rate of active ingredient delivery: in the multilayer pharmaceutical form; for activity of modulating substance in purified water versus phosphate buffer pH 6,8: in-vitro, purified water vs phosphate buffer pH 6,8 (Pharm. Eur.)
From the text: In the human and animal gastrointestinal tract the concentration of ions may vary to a certain extent and thus may influence the activity of the modulating substances. For reproducible in-vivo results substances having a modulating effect, which are not or only a little influenced by varying ionic strength are preferred.

Compound	effect of modulating substance on rate of active ingredient delivery	activity of modulating substance in purified water versus phosphate buffer pH 6,8
CC(=O)[O-].[Na+] [Na acetate]	increase the rate of active ingredient delivery	–
[Cl-].[Na+] [sodium chloride]	decrease the rate of active ingredient delivery	almost the same activity
O=C([O-])CCC(=O)[O-].[Na+].[Na+] [sodium succinate]	increase the rate of active ingredient delivery	almost the same activity
O=C([O-])CC(O)(CC(=O)[O-])C(=O)[O-].[Na+].[Na+].[Na+] [Na citrate]	decrease the rate of active ingredient delivery	–
O=C(O)CC(O)(CC(=O)O)C(=O)O [citric acid]	increase the rate of active ingredient delivery	almost the same activity
